Reference: patent US20240252695A9, “RADIOLABELED ETHER DENDRIMER CONJUGATES FOR PET IMAGING AND RADIOTHERAPY” (Ashvattha Therapeutics, Inc., priority 2020, published 2024)

Tested on: reactive microglia
Assay: PET/CT imaging of neuroinflammation in 5×FAD transgenic mice vs wild type
Format: in vivo, mouse
Conditions: 3.75 months of age
Excerpt: To further evaluate the ability of ^18F-OP-801 to image neuroinflammation in neurogenerative diseases, the 5×FAD transgenic mouse model was used. 5×FAD transgenic mice (B6SJL-Tg (APPSwFlLon,PSEN1*M146L*L286V)6799Vas) expressed human APP and PSEN1 transgenes developing amyloid plaque within a few months after birth and previous studies with TSPO PET radiotracers have only been able to detect neuroinflammation around 6 months (˜26 weeks) of age with a high TPSO affinity radiotracer, ^18F-GE180. 5×FAD female mice and age matched controls were used at 3.75 months of age to evaluate ^18F-OP-801 compared to the TPSO radiotracer, ^18F-GE180. ^18F-OP-801 ([…]) was injected as an IV bolus into wild type (n=7) and 5×FAD females (n=12) at 3.75 months of age. ^18F-GE180 (150-250 μCi) was administered to the 5×FAD transgenic (n=5) and wild type (n=4) female mice at 3.75 months of age. Static 10-minute PET/CT images were acquired at 50-60 minutes post-injection.

CCN(CC)C(=O)[C@H]1CCCc2c1c1c(OC)cccc1n2CC[18F] [^18F-GE180]
PET signal in 5×FAD mice compared to wild type mice (50-60 minutes post-injection): minimal PET signal differences | TG-to-WT ratio, Cortex (5xFAD mice): 1.21 | TG-to-WT ratio, Hippocampus (5xFAD mice): 1.24 | TG-to-WT ratio, Whole Brain (5xFAD mice): 1.21
